Measured values reported in article PMC5814047, “Peptidic inhibitors of insulin-degrading enzyme with potential for dermatological applications discovered via phage display” (PLoS ONE, 2018).
“And” between values parts separate entries of the source, which are not always exact repeats. Identical values can stand only once. Like-named read-outs stand apart in the source and are kept apart here. Bridge positions count the residues as written; N and C are the ends. Ends that are not written are not given here. Peptide text beside a SMILES is read from it.

Columns and labels:
[1] = biological target: T1, IDE (Homo sapiens, UniProt P14735); test: biochemical; conditions: for IC50 <500 uM?: initial test at 500 uM
T1 construct: made in house; host or cells: bacteria
T1 sequence (P14735 1-1019): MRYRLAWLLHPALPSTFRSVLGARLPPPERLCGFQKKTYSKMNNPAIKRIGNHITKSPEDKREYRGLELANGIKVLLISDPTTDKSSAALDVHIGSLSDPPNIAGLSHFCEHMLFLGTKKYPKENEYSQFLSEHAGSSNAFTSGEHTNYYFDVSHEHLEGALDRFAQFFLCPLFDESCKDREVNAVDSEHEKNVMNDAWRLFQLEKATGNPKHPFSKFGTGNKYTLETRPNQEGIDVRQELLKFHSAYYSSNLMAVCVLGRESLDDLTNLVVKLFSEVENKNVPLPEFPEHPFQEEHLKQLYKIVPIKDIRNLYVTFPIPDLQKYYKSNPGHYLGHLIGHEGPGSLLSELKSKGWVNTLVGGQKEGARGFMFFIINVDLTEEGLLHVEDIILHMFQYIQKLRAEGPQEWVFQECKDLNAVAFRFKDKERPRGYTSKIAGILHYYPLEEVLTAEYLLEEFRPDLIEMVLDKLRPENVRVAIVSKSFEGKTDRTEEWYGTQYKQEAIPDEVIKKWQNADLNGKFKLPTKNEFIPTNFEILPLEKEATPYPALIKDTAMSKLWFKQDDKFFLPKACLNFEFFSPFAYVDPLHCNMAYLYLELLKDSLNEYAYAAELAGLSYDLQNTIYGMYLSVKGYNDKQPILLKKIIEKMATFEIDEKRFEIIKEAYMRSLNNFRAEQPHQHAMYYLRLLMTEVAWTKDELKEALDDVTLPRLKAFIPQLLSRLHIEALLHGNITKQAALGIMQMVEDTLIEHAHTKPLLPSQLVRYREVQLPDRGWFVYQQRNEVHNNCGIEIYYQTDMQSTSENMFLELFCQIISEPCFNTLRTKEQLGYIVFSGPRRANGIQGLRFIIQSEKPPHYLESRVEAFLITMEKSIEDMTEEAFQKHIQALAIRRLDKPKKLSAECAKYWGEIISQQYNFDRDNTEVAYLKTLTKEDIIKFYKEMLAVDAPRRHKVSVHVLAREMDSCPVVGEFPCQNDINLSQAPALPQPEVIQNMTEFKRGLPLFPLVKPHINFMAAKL
In short: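 Recombinant human IDE (1 nM, bacterially expressed) degraded FRET1 substrate (5 μM), fluoresceinated biotinylated amyloid β (500 nM) or human insulin (50 nM) in PBS with 0.05% BSA. Peptides tested included N-acetylated and C-amidated variants.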

[2] = biological target: T1, IDE; test: biochemical; conditions: for IC50 <10 uM?: initial test at 10 uM using insulin (100 nM); for remaining activity at 0.016 µM: Cmpd 0.016 uM; for remaining activity at 0.08 µM: Cmpd 0.08 uM; for remaining activity at 0.4 µM: Cmpd 0.4 uM; for remaining activity at 2 µM: Cmpd 2 uM; for remaining activity at 10 µM: Cmpd 10 uM
In short: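 Bacterially expressed recombinant human IDE (1 nM) in PBS with 0.05% BSA. Substrates: FRET1 (5 μM; fluorescence, ex 340/em 420 nm), fluoresceinated biotinylated amyloid β-protein (500 nM; fluorescence polarization, ex 488/em 525 nm), or recombinant human insulin (50 nM; ELISA).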

[3] = Cheng-Prusoff, KM 10 uM, substrate concentration 5 uM, read-out: Ki values, Mean
[4] = dose-response, individual runs, read-out: Percent Activity (normalized source data)
[5] = dose-response, FRET1, read-out: IC50s, Mean
[6] = initial test, percent of initial velocity relative to DMSO-only controls, individual replicates, read-out: Percent activity at 500 uM, Replicate 1-4
[7] = judged as IC50 <100 uM?, individual replicates, read-out: Percent activity at 500 uM, Replicate 1-4
[8] = substrate FRET1 5 μM, Ki from IC50 with the Cheng-Prusoff equation, read-out: Ki FRET1
[9] = insulin ELISA assay, dose-response, Replicates 1-3, read-out: IC50s, individual replicates
[10] = insulin ELISA assay, dose-response, N=3, read-out: IC50s, Mean
[11] = substrate recombinant human insulin 50 nM, Ki from IC50 with the Cheng-Prusoff equation
[12] = dose-response, 500 uM, individual runs, read-out: Percent Activity (normalized source data)
[13] = dose-response, 125 uM, individual runs, read-out: Percent Activity (normalized source data)
[14] = initial test, percent of initial velocity relative to DMSO-only controls, N 4, read-out: Percent activity at 500 uM, Mean
[15] = judged as IC50 <100 uM?, N 4, read-out: Percent activity at 500 uM, Mean
[16] = insulin ELISA, Runs 1-3, read-out: Percent Activity (normalized source data)
[17] = dose-response, FRET1, individual runs, read-out: IC50s, Run 1-6

WSPISGKFFQRF [P12-4]
Ki [1, 3]: 3.93 µM | remaining activity at 31.25 µM [1, 4]: 46.9% | IC50 [1, 5]: 5.89 µM | IC50 <500 uM? [1]: YES | remaining activity at 500 µM [1, 6]: 8.6% | remaining activity at 500 µM [1, 7]: 15.5% | Ki [1, 8]: 3.9 ± 0.5 µM | IC50 <10 uM? [2]: YES | IC50 [2, 9]: 1.9 µM and 3.16 µM and 3.78 µM | IC50 [2, 10]: 2.95 µM | Ki [2, 11]: 1.5 ± 0.3 µM

VHWDFRQWWQPS-NH2 [P12-1A]
Ki [1, 3]: 5.3 µM | remaining activity at 0.488281 µM [1, 4]: 88.4% | remaining activity at 500 µM [1, 12]: 1.11% | IC50 [1, 5]: 7.95 µM | IC50 <500 uM? [1]: YES | Ki [1, 8]: 5 ± 0.3 µM | IC50 <10 uM? [2]: YES | IC50 [2, 9]: 3.22 µM and 1.93 µM and 2.38 µM | IC50 [2, 10]: 2.51 µM | Ki [2, 11]: 1.3 ± 0.2 µM

CC(C)C[C@H](NC(=O)[C@H](CO)NC(=O)[C@@H](N)CCC(N)=O)C(=O)N1CCC[C@H]1C(=O)N[C@@H](Cc1c[nH]c2ccccc12)C(=O)N[C@H]1CSSC[C@@H](C(=O)N[C@H](C(=O)N[C@H](C(=O)O)[C@@H](C)O)C(C)C)NC(=O)[C@H](Cc2c[nH]cn2)NC(=O)[C@@H]2CCCN2C(=O)[C@H](Cc2ccc(O)cc2)NC1=O [P12-3] (H-QSLPWCYPHCVT-OH; disulfide 6-10 (inferred))
remaining activity at 0.12207 µM [1, 4]: 91.1% | remaining activity at 0.488281 µM [1, 4]: 84.5% | remaining activity at 1.95312 µM [1, 4]: 84.4% | remaining activity at 7.8125 µM [1, 4]: 65.6% | remaining activity at 31.25 µM [1, 4]: 34.6% | remaining activity at 125 µM [1, 13]: 11% | IC50 <500 uM? [1]: YES | remaining activity at 500 µM [1, 14]: 2% | remaining activity at 500 µM [1, 15]: 13.9% | IC50 <10 uM? [2]: YES | remaining activity at 0.016 µM [2, 16]: 66.3% | remaining activity at 0.08 µM [2, 16]: 72.2% | remaining activity at 0.4 µM [2, 16]: 62.9% | remaining activity at 2 µM [2, 16]: 64.4% | remaining activity at 10 µM [2, 16]: 37.6%

VHWDFRQWWQPS [P12-1]
Ki [1, 3]: 7.71 µM | remaining activity at 500 µM [1, 12]: 0.0455% | IC50 [1, 17]: 11.6 µM and 9.84 µM and 13.2 µM | IC50 [1, 5]: 11.6 µM | IC50 <500 uM? [1]: YES | remaining activity at 500 µM [1, 7]: 17.6% | Ki [1, 8]: 7.7 ± 0.7 µM | Ki ([2]; as restated in the Discussion, read-out: Ki (insulin)): 0.8 µM | IC50 <10 uM? [2]: YES | IC50 [2, 9]: 1.58 µM and 1.47 µM and 1.72 µM | IC50 [2, 10]: 1.59 µM | Ki [2, 11]: 0.8 ± 0.04 µM

CC(C)C[C@H](NC(=O)[C@H](CO)NC(=O)[C@@H](N)CCC(N)=O)C(=O)N1CCC[C@H]1C(=O)N[C@@H](Cc1c[nH]c2ccccc12)C(=O)N[C@H]1CSSC[C@@H](C(=O)N[C@H](C(=O)N[C@H](C(N)=O)[C@@H](C)O)C(C)C)NC(=O)[C@H](Cc2c[nH]cn2)NC(=O)[C@@H]2CCCN2C(=O)[C@H](Cc2ccc(O)cc2)NC1=O [P12-3A] (H-QSLPWCYPHCVT-NH2; disulfide 6-10 (inferred))
remaining activity at 0.0005 µM ([1]; FRET1, P12-3A 0.0005 uM, Replicates 4-6, read-out: Percent Activity (normalized source data)): 109% | remaining activity at 0.0016 µM ([1]; FRET1, P12-3A 0.0016 uM, Replicates 4-6, read-out: Percent Activity (normalized source data)): 115% | remaining activity at 0.005 µM ([1]; FRET1, P12-3A 0.005 uM, Replicates 4-6, read-out: Percent Activity (normalized source data)): 119% | remaining activity at 0.05 µM ([1]; FRET1, P12-3A 0.050 uM, Replicates 4-6, read-out: Percent Activity (normalized source data)): 134% | remaining activity at 0.12 µM ([1]; FRET1, P12-3A 0.12 uM, Replicates 1-3, read-out: Percent Activity (normalized source data)): 81.6% | remaining activity at 0.24 µM ([1]; FRET1, P12-3A 0.24 uM, Replicates 1-3, read-out: Percent Activity (normalized source data)): 82.7% | remaining activity at 0.49 µM ([1]; FRET1, P12-3A 0.49 uM, Replicates 1-3, read-out: Percent Activity (normalized source data)): 73.4% | remaining activity at 0.98 µM ([1]; FRET1, P12-3A 0.98 uM, Replicates 1-3, read-out: Percent Activity (normalized source data)): 62.8% | remaining activity at 3.91 µM ([1]; FRET1, P12-3A 3.91 uM, Replicates 1-3, read-out: Percent Activity (normalized source data)): 45.2% | remaining activity at 7.81 µM ([1]; FRET1, P12-3A 7.81 uM, Replicates 1-3, read-out: Percent Activity (normalized source data)): 33% | remaining activity at 15.6 µM ([1]; FRET1, P12-3A 15.6 uM, Replicates 1-3, read-out: Percent Activity (normalized source data)): 38.9% | remaining activity at 16 µM ([1]; FRET1, P12-3A 16 uM, Replicates 4-6, read-out: Percent Activity (normalized source data)): 45.2% | remaining activity at 31.2 µM ([1]; FRET1, P12-3A 31.2 uM, Replicates 1-3, read-out: Percent Activity (normalized source data)): 30.6% | remaining activity at 50 µM ([1]; FRET1, P12-3A 50 uM, Replicates 4-6, read-out: Percent Activity (normalized source data)): 31.6% | remaining activity at 62.5 µM ([1]; FRET1, P12-3A 62.5 uM, Replicates 1-3, read-out: Percent Activity (normalized source data)): 23.7% | remaining activity at 125 µM ([1]; FRET1, P12-3A 125 uM, Replicates 1-3, read-out: Percent Activity (normalized source data)): 20.1% | remaining activity at 158 µM ([1]; FRET1, P12-3A 158 uM, Replicates 4-6, read-out: Percent Activity (normalized source data)): 23.8% | remaining activity at 250 µM ([1]; FRET1, P12-3A 250 uM, Replicates 1-3, read-out: Percent Activity (normalized source data)): 10.4% | remaining activity at 0.12207 µM [1, 4]: 87.1% | remaining activity at 0.488281 µM [1, 4]: 82.8% | remaining activity at 1.95312 µM [1, 4]: 78.7% | remaining activity at 7.8125 µM [1, 4]: 74% | remaining activity at 31.25 µM [1, 4]: 40.2% | remaining activity at 125 µM [1, 13]: 9.83% | IC50 <500 uM? [1]: YES | remaining activity at 500 µM [1, 14]: 3.6% | remaining activity at 500 µM [1, 15]: 17.1% | Hill slope ([2]; dose-response of P12-3A against insulin degradation by IDE, Fig 3B): 0.91 ± 0.15 | IC50 <10 uM? [2]: YES | remaining activity at 0.016 µM [2, 16]: 90.2% | remaining activity at 0.08 µM [2, 16]: 84.4% | remaining activity at 0.4 µM [2, 16]: 76.5% | remaining activity at 2 µM [2, 16]: 62.5% | remaining activity at 10 µM [2, 16]: 47.7% | remaining activity at 50 µM ([2]; insulin ELISA, Cmpd 50 uM, Runs 1-3, read-out: Percent Activity (normalized source data)): 28.6% | remaining activity at 0.0316228 µM ([2]; resynthesized P12-3A 0.0316228 uM, individual replicates, read-out: Percent Activity (normalized source data)): 98.5%

QSLPWCYP-NH2 [P12-3B]
Ki [1, 3]: 39.4 µM | IC50 [1, 17]: 25.6 µM and 32.5 µM | IC50 [1, 5]: 59.2 µM | IC50 <500 uM? [1]: YES | remaining activity at 500 µM [1, 6]: 13.7% | remaining activity at 500 µM [1, 7]: 27.1% | Ki [1, 8]: 39 ± 20 µM | IC50 ([2]; from initial test at 10 uM using insulin (100 nM), read-out: IC50 (summary of results, listed in Table 1)): > 10 µM | Ki [2, 11]: > 10 µM
